Laboratory results reported in patent US20250281568A1, “METHOD FOR TREATING OR PREVENTING DRUG-INDUCED LIVER INJURY WITH PEPTIDE COMPOSITION” (Tunghai University, priority 2024, published 2025).

Tests used:
Format in all cases: in vivo
BALB/cByJNarl mice [1] = experiment: Analysis of stained liver tissue sections (H&E, immunohistochemical staining) of mice injected with acetaminophen; conditions: 50 mg/kg/day oral, 7 days
Procedure: (§1) After being raised under the corresponding conditions for 7 days, each group of mice was weighed and then fasted for 12 hours. After fasting, each group of mice was intraperitoneally injected with an acetaminophen solution at 300 mg/kg. 24 hours after the injection, the mice were sacrificed, and blood was collected from the mice.
The liver tissue collected from each group of mice in example 2 was sectioned and then subjected to immunohistochemical staining with hematoxylin and eosin (H&E) and with different antibodies.

[2] = Animal test: body weight and organ weights of mice; conditions: 50 mg/kg/day oral, 7 days, then acetaminophen 300 mg/kg i.p.
Procedure: as §1

BALB/cByJNarl mice [3] = experiment: Biochemical analysis of blood (serum) of mice injected with acetaminophen; conditions: 50 mg/kg/day oral, 7 days
Procedure: as §1
The blood collected from each group of mice in example 2 was analyzed with a commercial assay kit in order to determine the concentrations of aspartate aminotransferase (AST), alanine aminotransferase (ALT), alkaline phosphatase (ALP), C-reactive protein (CRP), interleukin-6 (IL-6), and monocyte chemoattractant protein-1 (MCP-1) in the serum of each group of mice.

BALB/cByJNarl mice [4] = experiment: Analysis of proteins in the liver of mice injected with acetaminophen; conditions: 50 mg/kg/day oral, 7 days; vs control group
Procedure: as §1
Livers were collected from each group of mice in example 2 and were analyzed in order to determine the concentrations of superoxidase dismutase (SOD), glutathione peroxidase (GPx), and glutathione (GSH) in the livers.

[5] = immunohistochemical staining, vs control group

With `NCCC(=O)N[C@@H](Cc1cnc[nH]1)C(=O)O` [carnosine] the “expression amount of 4-hydroxy-2-nonenal (4-HNE) in the liver” value (BALB/cByJNarl mice [1]; [5]) was “significantly less”, the “expression amount of GSH in the liver” value (BALB/cByJNarl mice [1]; [5]) was “significantly greater” and the “expression amount of Kelch-like ECH-associated protein 1 (Keap1) in the liver” value (BALB/cByJNarl mice [1]; [5]) was “significantly less”. The “expression amount of heme oxygenase 1 (HO-1) in the liver” value (BALB/cByJNarl mice [1]; [5]) was “significantly greater”, the “expression amount of nuclear factor erythroid 2-related factor 2 (Nrf2) in the liver” value (BALB/cByJNarl mice [1]; [5]) was “significantly greater” and the “liver cell damage (H&E-stained liver section)” value (BALB/cByJNarl mice [1]; vs blank group) was “significantly damaged in comparison with those of the blank group”. For the same compound, the “liver cell damage (H&E-stained liver section)” value (BALB/cByJNarl mice [1]; vs control group) was “damaged to a smaller extent than those of the control group”, the weight of heart ([2]; 24 hours, among the groups) was “no significant difference in the weight of heart” and the liver weight ([2]; vs control group) was “liver weight of the control group of mice was significantly higher than those of the other groups”. For the same compound, the “serum CRP concentration” value (BALB/cByJNarl mice [3]; vs blank group) was “not significantly different from that of the blank group”, the “serum ALP concentration” value (BALB/cByJNarl mice [3]; vs control group) was “significantly lower than those of the control group” and the “serum ALT concentration” value (BALB/cByJNarl mice [3]; vs control group) was “significantly lower than those of the control group”. The “serum AST concentration” value (BALB/cByJNarl mice [3]; vs control group) was “significantly lower than those of the control group”, the “serum CRP concentration” value (BALB/cByJNarl mice [3]; vs control group) was “significantly lower than that of the control group” and the “serum IL-6 concentration” value (BALB/cByJNarl mice [3]; vs control group) was “lower than that of the control group”. The “serum MCP-1 concentration” value (BALB/cByJNarl mice [3]; vs control group) was “significantly lower than that of the control group”, the “liver GPx concentration” value (BALB/cByJNarl mice [4]) was “significantly higher than those of the control group” and the “liver GSH concentration” value (BALB/cByJNarl mice [4]) was “significantly higher than those of the control group”. For the same compound, the “liver SOD concentration” value (BALB/cByJNarl mice [4]) was “significantly higher than those of the control group”.
